Measured values as given in patent US20040198716A1, “Cysteine protease inhimbitors” (priority 2001, published 2004).

Key:
[1] = biological target: T1, human recombinant caspase-3 (Homo sapiens, UniProt P42574); assay: In vitro high throughput caspase-3 assay; type: biochemical; conditions: for Percent Activity: percentage of the positive control, 20-250 μM test compound, lower = better inhibition, negative = better than control caspase inhibitor; for Ki: calculated from IC50 according to Equation 1, read-out: Ki(app); for IC50: fixed substrate concentration of 55 μM, inhibitors 75 to 0.067 μM in duplicate
T1 construct: purchased Sigma
T1 sequence (P42574 29-175 limits assumed): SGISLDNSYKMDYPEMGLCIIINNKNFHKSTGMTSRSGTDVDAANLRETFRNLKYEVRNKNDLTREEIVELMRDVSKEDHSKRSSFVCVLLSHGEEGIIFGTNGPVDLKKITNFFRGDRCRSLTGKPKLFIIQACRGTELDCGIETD
T1 sequence (P42574 176-277 limits assumed): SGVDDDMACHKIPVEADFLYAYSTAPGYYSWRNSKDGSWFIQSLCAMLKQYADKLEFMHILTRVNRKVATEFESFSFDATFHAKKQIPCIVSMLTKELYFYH
Description: Purified Human recombinant caspase-3, fluorescence labeled substrate (Acetyl-Asp-Glu-Val-Asp-7-amino-4-trifluoromethyl coumarin), and known inhibitor (Z-Asp-Glu-Val-Asp-fluoromethyl ketone) can be purchased from Sigma Chemical Co. (St. Louis, Mo.). The enzyme reactions are carried out at room temperature in 10 mM PIPES pH=7.4, 2 mM EDTA, 0.1% CHAPS, 5 mM DTT reaction buffer. Each well on the 96 well plate contains the above reaction buffer plus 55 μM fluorescence labeled substrate, 0.125 μg caspase-3, and 20-250 μM test compound. Positive and negative controls are present on each assay plate. A standard curve is generated using 7-amino-4-trifluoromethyl coumarin in the concentration range from 0.15 μM to 5.0 μM. The reactions are preferably read every 0.5 hours using a fluorescence microtiter plate reader set for 390 nm excitation and 538 nm emission for the first 4 hours after which the plates are left at room temperature overnight. One reading is taken the next morning as a final measurement.
To determine the caspase inhibitory activity of these compounds, the in vitro high throughput caspase-3 assay presented herein was utilized. Purified human recombinant caspase-3, fluorescence labeled substrate (Acetyl-Asp-Glu-Val-Asp-7-amino-4-trifluoromethyl coumarin), and known inhibitor (Z-Asp-Glu-Val-Asp-fluoromethyl ketone) were purchased from Sigma. The enzyme reactions were carried out at room temperature in 10 mM PIPES pH=7.4, 2 mM EDTA, 0.1% CHAPS, 5 mM DTT reaction buffer. Each well on the 96 well plate contained the above reaction buffer plus 55 μM fluorescence labeled substrate, 0.125 μg caspase-3, and 20-250 μM test compound. Positive and negative controls were present on each assay plate. A standard curve was generated using 7-amino-4-trifluoromethyl coumarin in the concentration range from 0.15 μM to 5.0 μM. The reactions were read every 0.5 hours using a fluorescence microtiter plate reader set for 390 nm excitation and 538 nm emission for the first 4 hours after which the plates were left at room temperature overnight. One reading was taken the next morning as a final measurement.
Ki determinations were carried out using the above assay system. […] Ki(app) was calculated according to Equation 1: [formula]
The concentration of inhibitors ranged from 75 to 0.067 μM with each inhibitor concentration assayed in duplicate. The Km for the substrate was determined from a standard Lineweaver-Burke plot.

[2] = biological target: T2, Human Rhinovirus serotype 1A 3C Protease (Human rhinovirus 1A, UniProt P23008); assay: 3C Protease Biochemical Assay (FRET); conditions: 30° C., 2-6uM substrate, 416 nM 3CP
T2 construct: used to clone the 3C Protease into the expression vector pET16-b; made in house; host or cells: E. coli BL21-DE3-pLys-S
T2 sequence (P23008 1515-1697): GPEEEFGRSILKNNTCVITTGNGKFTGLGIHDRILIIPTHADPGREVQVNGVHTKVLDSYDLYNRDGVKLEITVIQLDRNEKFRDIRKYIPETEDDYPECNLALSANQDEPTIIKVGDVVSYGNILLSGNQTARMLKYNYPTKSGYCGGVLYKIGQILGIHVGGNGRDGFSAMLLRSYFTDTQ
Description: Human Rhinovirus serotype 1A (ATCC) was used to clone the 3C Protease into the expression vector pET16-b and transformed for production into the E. coli strain BL21-DE3-pLys-S. 3C Protease expression was induced with 1 mM IPTG at 25° C. and purified from the soluble protein extract by chromatography on a SourceQ (Pharmacia) followed by gel filtration. HRV 3CP activity was measured by fluorescence resonance energy transfer using a dimodified decapeptide substrate MOC-[…]DNP-NH2 (7-methoxy coumarin-4-acetic acid fluorochrome and dinitrophenol quencher) with a Km value of 16.8 μM. Inhibition was measured as a change in initial velocity (V0) as a function of inhibitor (I) concentration and substrate (S) concentration. […] Fluorescence was monitored by excitation at 328 nm and emission at 393 nm with 10 nm cutoffs. Data were analyzed with the nonlinear regression analysis program EnzFitter (BioSoft) with the equation:
Ki=(I/((VmaxxS)/V0)/Ks)−I−S
Substrate concentrations used were lower than the Km of the substrate (16.8 uM) so no corrections for an S/Km term were used.

Compound | Percent Activity [1] | Ki [1] | IC50 [1] | Ki [2]
O=C(NC1CCCCC1)c1ccc2c3c(onc13)-c1ccccc1C2=O [cpi0156.0045] | 3.338% |  |  | 
O=C1c2ccccc2C(=O)c2c(O)c(O)cc(O)c21 [cpi0136.0006] | −2.295% | 0.762 µM | 4.8 µM | 
CN(C)c1cc(Nc2ccccc2)c2c3c(onc13)-c1ccccc1C2=O [cpi0156.0052] | 31.97% |  |  | 
O=C1C=CC(=NNc2cc([N+](=O)[O-])cc([N+](=O)[O-])c2)c2cccc(O)c21 [cpi0136.0008] | −0.715% | 0.557 µM | 3.51 µM | 
O=C1C(Br)=C(Br)C(=O)c2c1ccc(Br)c2O [cpi0139] |  | 69.8 µM | 440 µM | 154 µM
O=C1c2ccccc2C(=O)c2c1cc(S(=O)(=O)O)c(O)c2O [cpi0136.0005] | −2.336% | 1.41 µM | 8.9 µM | 
Nc1ccc(O)c2c1C(=O)c1ccccc1C2=O [cpi0136.0007] | −0.8437% | 1.77 µM | 11.2 µM | 
O=C1C=CC(=O)c2c(O)cccc21 [cpi0136.0002] | −6.091% | 0.0026 µM | 0.02 µM | 
O=C1C(Br)=CC(=O)c2c(O)cccc21 [cpi0141] |  | 4.91 µM | 30.9 µM | 73 µM
COc1c(C)c([N+](=O)[O-])c(O)c2c1C(=O)c1ccccc1C2=O [cpi0136.0024] | 51.3817% | 3.05 µM | 19.2 µM | 
Cc1cc(C(=O)NN)c2cc(Br)ccc2n1 [cpi0157.C3] | 36.41% | 131 µM | 825 µM | 
O=C1C(Cl)=C(N2CCOCC2)C(=O)c2ccccc21 [cpi0156.0044] | −1.376% |  |  | 
CC(C)=CCC(O)C1CC(=O)c2c(O)ccc(O)c2C1=O (mixture of isomers) [cpi0138.0002] | 30.37% |  |  | 
CC(=O)N(Cc1ccccc1)C1=C(Cl)C(=O)c2ccccc2C1=O [cpi0156.0046] | −1.772% |  |  | 
O=C1c2ccccc2-c2onc3ccc(Cl)c1c23 [cpi0156.0056] | 1.882% |  |  | 
O=C1c2ccccc2-c2onc3ccc(Oc4c(F)c(F)c(F)c(F)c4F)c1c23 [cpi0156.0042] | 11.08% |  |  | 
O=C(COc1cc(O)c2c(=O)cc(-c3ccccc3)oc2c1)OCc1ccccc1 [cpi0136.0025] | 54.1256% | 40.5 µM | 255 µM | 
N#CC1=C(N)NC(SCc2ccccc2)=C(C#N)C12CCCC2 [cpi0157.F10] | 19.48% | 14.5 µM | 91 µM | 
CNc1cc(Nc2ccccc2)c2c3c(onc13)-c1ccccc1C2=O [cpi0156.0051] | 6.782% |  |  | 
CC(=O)OCCNc1cc(Br)c2noc3c2c1C(=O)c1ccccc1-3 [cpi0156.0034] | −0.6303% |  |  | 
COc1cc(NC2OC(CO)C(O)C(O)C2O)ccc1C (stereo not shown) [cpi0159.C3] | 33.47% |  |  | 

Compound | Percent Activity [1] | Ki [1] | IC50 [1] | Ki [2]
O=C(O)Cc1cc(O)c2c(c1O)C(=O)c1ccccc1C2=O [cpi0136.0011] | 2.42% | 1.13 µM | 7.13 µM | 
O=C1C=CC(=NNc2ccc([N+](=O)[O-])cc2[N+](=O)[O-])c2cccc(O)c21 [cpi0136.0020] | 36.98% | 54.2 µM | 342 µM | 
CC(C)=CCC(O)C1CC(=O)c2c(O)ccc(O)c2C1=O (mixture of isomers) [cpi0138.0001] | 22.68% |  |  | 
O=C1C(Br)=C(Br)C(=O)c2c(O)c(Br)c(Br)c(O)c21 [cpi0140] |  | 0.503 µM | 3.17 µM | 
O=C1c2ccccc2C(=O)c2c(O)ccc(O)c21 [cpi0130] | 45.72% |  |  | 
O=C1c2ccccc2-c2onc3c(N4CCCCC4)cc(Nc4ccccc4)c1c23 [cpi0156.0048] | 18.82% |  |  | 
O=C1C(Cl)=C(Cl)C(=O)c2ccccc21 [cpi0128] | 1.67% | 1.05 µM | 6.62 µM | 
COc1ccc2noc3c2c1C(=O)c1ccccc1-3 [cpi0156.0054] | −3.264% |  |  | 
O=C1C=CC(=O)c2ccccc21 [cpi0126] | −0.30% | 0.642 µM | 4.04 µM | 515 µM
O=C(O)c1c(O)c2c(c(O)c1Cl)C(=O)c1ccccc1C2=O [cpi0136.0001] | −8.938% | 0.807 µM | 5.09 µM | 
O=C1c2ccccc2-c2onc3c(N4CCN(c5ccccc5)CC4)ccc1c23 [cpi0156.0047] | 28.63% |  |  | 
NC(=O)NN=C1C=CC(=O)c2c(O)cccc21 [cpi0136.0004] | −3.391% | 0.0682 µM | 0.43 µM | 
Cc1ccc2[nH]c3c(cc(O)c4c(=O)c5ccccc5c(=O)c43)oc2c1 [cpi0136.0017] | 24.8% | 16.7 µM | 106 µM | 
O=C(O)C1Cc2c([nH]c3ccccc23)C(c2ccncc2)N1 (stereo not shown) [cpi0190] |  | 0.0054 µM | 0.03 µM | 
COc1ccc2c(c1OC)C(=O)OC2CC(=O)c1ccc(O)cc1O (stereo not shown) [cpi0156.D1] | 24.72% |  |  | 
O=C1C(c2ccc(O)c(O)c2)=C(O)C(=O)c2c(O)cc(O)cc21 [cpi0136.0010] | 1.452% | 9.76 µM | 61.5 µM | 
CC1=CC(=O)c2ccccc2C1=O [cpi0127] | 1.32% | 0.694 µM | 4.37 µM | 242 µM
O=C(NN=Cc1ccccc1)C12CC3CC(C1)CC(C(=O)NN=Cc1ccccc1)(C3)C2 [cpi0157.B2] | 50.76% | 52.8 µM |  | 
Cc1cccc(Oc2ccc3noc4c3c2C(=O)c2ccccc2-4)c1 [cpi0156.0055] | −1.448% |  |  | 
N#CC1=C(N)SC(N)=C(C#N)C1c1cccc(F)c1 [cpi0157.F9] | 31.50% | 39.9 µM | 251 µM | 
